Some test systems named below: RXF 393; CCRF-CEM; SNB-19; CAKI-1; BT-549; HCT-116; OVCAR-8; IGROV-1; KM12; SK-OV-3; 786-0; TK-10; SN12C; MDA-MB-435; A549; KM-20L2; OVCAR-5; SK-MEL-5; NCI-H460; HL-60.
Holding throughout (experiment): growth of human tumour cells (NCI), 48 h

The text below walks through data of ChEMBL document CHEMBL1201862, “PubChem BioAssay data set” (2004).

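Dose response: 5 concentrations. Exposure: 48 h. Format: 96-well plates. Endpoint: linear interpolation; highest concentration if not reached. Here, GI50 denotes the concentration required for 50% inhibition of growth.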 The source made the active and inactive calls. Cut-off read from the data, not from the text of the source: active = GI50 up to about 1.1 µM and inactive = higher.

`COc1ccc2[nH]c3ccc4cc[n+](CCN5CCC(C6CCN(CC[n+]7ccc8ccc9[nH]c%10ccc(OC)cc%10c9c8c7)CC6)CC5)cc4c3c2c1`: the GI50 in the assay with RXF 393 is 0.569 µM (active); in the assay on CCRF-CEM, 0.274 µM (active); in the assay on SNB-19, 1.38 µM (inactive); in the assay on CAKI-1, 1.02 µM (active); in the assay on BT-549, 35.5 µM (inactive); in the assay on HCT-116, 0.262 µM (active). Also, the GI50 was 0.405 µM (active) in the assay on OVCAR-8; 0.352 µM (active) in the assay with IGROV-1; 0.818 µM (active) in the assay on KM12; 6.37 µM (inactive) in the assay with SK-OV-3; 0.249 µM (active) in the assay with 786-0; 21.4 µM (inactive) in the assay with TK-10. The GI50 is 0.661 µM (active) in the assay on SN12C; > 50 µM (inactive) with MDA-MB-435; 0.409 µM (active) with A549; 1.36 µM (inactive) with KM-20L2; > 76 µM (inactive) in the assay with OVCAR-5; 1.81 µM (inactive) with SK-MEL-5.

In the case of `COc1cccc2c1C(=O)c1c(O)c3c(c(O)c1C2=O)C[C@@](O)(/C(C)=N/NC(=O)c1ccccc1)C[C@@H]3OC1CC(N)C(O)C(C)O1` (stereo partly specified), the GI50 in the assay with RXF 393 was 0.33 µM (active); in the assay with CCRF-CEM, 0.0592 µM (active); with SNB-19, 0.179 µM (active); in the assay with CAKI-1 it was 0.141 µM (active); in the assay with BT-549, 0.304 µM (active); in the assay with HCT-116, 0.19 µM (active). Also, the GI50 in the assay with OVCAR-8 is 0.283 µM (active); in the assay with NCI-H460, 0.0355 µM (active); with IGROV-1 it was 0.262 µM (active); with KM12, 0.392 µM (active); with SK-OV-3, 0.583 µM (active); in the assay with 786-0, 0.0562 µM (active). Further, the GI50 in the assay with HL-60 was 0.0604 µM (active); with TK-10, 0.53 µM (active); in the assay with SN12C it was 0.155 µM (active); in the assay on MDA-MB-435, 0.362 µM (active); in the assay on A549, 0.206 µM (active); in the assay on KM-20L2, 0.807 µM (active). Moreover, the GI50 with OVCAR-5 is 0.643 µM (active); with SK-MEL-5, 0.161 µM (active).

`N#C/N=C(/N)NCN/C(N)=N\C#N`: the GI50 in the assay with RXF 393 is 73.3 µM (inactive); in the assay with CCRF-CEM it was > 100 µM (inactive); with SNB-19 it was > 100 µM (inactive); in the assay on CAKI-1 it was > 100 µM (inactive); in the assay on HCT-116, > 100 µM (inactive); with OVCAR-8 it was > 100 µM (inactive). Also, the GI50 in the assay on NCI-H460 was > 100 µM (inactive); in the assay on IGROV-1 it was > 100 µM (inactive); in the assay on KM12 it was > 100 µM (inactive); in the assay on SK-OV-3, > 100 µM (inactive); in the assay on 786-0, 23.1 µM (inactive); in the assay with HL-60, > 100 µM (inactive). Besides, the GI50 with TK-10, in the assay on SN12C, in the assay on A549, in the assay on KM-20L2, in the assay with OVCAR-5 and in the assay with SK-MEL-5 was > 100 µM (inactive) each time.

Regarding `CCOC(=O)C(Cc1cc(OC)c(CC(C(=O)OCC)C(=O)OCC)cc1OC)C(=O)OCC`, the GI50 with RXF 393 was > 55.7 µM (inactive); in the assay on CCRF-CEM it was > 100 µM (inactive); in the assay on SNB-19, > 68.5 µM (inactive); with CAKI-1, > 100 µM (inactive); with BT-549, > 100 µM (inactive); in the assay with HCT-116, > 100 µM (inactive). The GI50 in the assay on OVCAR-8 is > 81.1 µM (inactive); in the assay with NCI-H460 it was > 100 µM (inactive); in the assay on IGROV-1, > 100 µM (inactive); in the assay on KM12 it was > 100 µM (inactive); in the assay on SK-OV-3 it was > 93.8 µM (inactive); in the assay with 786-0 it was 61.5 µM (inactive). Besides, the GI50 in the assay on HL-60, with TK-10, in the assay on SN12C, with MDA-MB-435, in the assay with A549 and with KM-20L2 was > 100 µM (inactive) each time. In addition, the GI50 in the assay on OVCAR-5 and in the assay with SK-MEL-5 was > 100 µM (inactive) each time.
